This test concerns PGC-1α. Nature of the test: Single point PGC-1α assay (in-cell ELISA in differentiated C2C12 myotubes). Format: cell-based. The note with it: Mus musculus, each compound tested at 0.01 nM, DMSO control as 100 %. How it is done:
Culture conditions: DMEM containing 25 mM glucose with 10 % FBS supplementation; grown at 37° C. and 5 % CO2.
Assay Conditions: C2C12 cells were cultured in DMEM supplemented in 10 % FBS up to 80 % confluence. The cells were further trypsinized and seeded into a 96 well plate at a density of 5000 cells/well (well volume – 100 µL) (Day 0). Following attachment, the cells were allowed to reach 80-90% confluence in the plate (typically 48 hours post seeding) and further differentiated using DMEM + 2 % Horse Serum (200 µL/well). The media was changed every day or at least every alternate day for 5 days to allow myoblasts to differentiate into myotubes. On day 7 (post seeding), the cells were treated with standards and test compounds for PGC-1α assay.
PGC-1α assay: For the detection of PGC-1α, the cells were incubated with 0.5 µg/ml primary antibody (Merck, WH0010891M3) in PBS-T containing 5 % BSA at 4° C. overnight. The cells were then washed three times with PBS-T for 5 minutes and incubated with 1:1000 dilution secondary antibody (Anti- rabbit IgG, HRP-linked Antibody, Cell Signaling) in PBS-T with 1 % BSA for 1 hour at RT. Cells were washed three times with PBS-T for 5 minutes The cells were incubated with 100 µl TMB substrate solution for 30 minutes and the reaction was stopped with 100 µl of 2N H2SO4. Then the plate was read at 450 nm using ELISA plate reader and absorbance recorded. % activity was calculated using DMSO control as 100 %. (For plate optical density calculations, a background correction was taken at 540 nm). Each compound was tested at a concentration of 0.01 nM.
A general note: An ELISA detects its analyte on a solid surface through an enzyme-linked reagent.

[1] abbreviates: average, count 1, read-out: Single point PGC1-Alpha Assay: Average Activity (%).
Where [2] appears, read: read-out: Single point PGC1-Alpha Assay: Activity (%).

The source of these data is patent US20230192638A1, “POLYPHENOLS DERIVATIVES” (Epirium Bio Inc., priority 2021, published 2023).

Read-outs that look alike come from different tables or passages of the source.

As to `COc1cc([C@@H]2Oc3cc(O)cc(O)c3C[C@@H]2O)ccc1O`, the activity at 10 pM worked out at 124% under setting [1] and 124% under setting [2].

In the case of `Cc1cc(O)cc(C2Oc3cc(O)cc(O)c3CC2O)c1` (stereo not drawn), the activity at 10 pM is, setting by setting: under setting [1], 109%; under setting [2], 109%.

Consider `Cc1cc(O)cc([C@@H]2Oc3cc(O)cc(O)c3C[C@@H]2O)c1`, for which the activity at 10 pM amounted to 114% under setting [1] and 114% under setting [2].

`Cc1cc(O)cc([C@H]2Oc3cc(O)cc(O)c3C[C@H]2O)c1`: the activity at 10 pM by setting is: under setting [1], 103%; under setting [2], 103%.

For the compound `Oc1cc(F)cc([C@@H]2Oc3cc(O)cc(O)c3C[C@@H]2O)c1`, the activity at 10 pM by setting is: under setting [1], 117%; under setting [2], 117%.

With `Oc1cc(O)c2c(c1)O[C@@H](c1ccc(F)c(O)c1)[C@@H](O)C2`, the activity at 10 pM under setting [1] was found to be 104% and the activity at 10 pM under setting [2] was 104%.
